“Also recorded” adds a separate entry of the source. Like-named read-outs stand apart in the source and are kept apart here.
Assays:
KRAS^G12C = system: KRAS^G12C; design: method as in PMID 28621541; settings: > 50% labeling at 100 μM considered active; cited from earlier work
[1] = Kinetic measurement of adduct formation with L-glutathione (GSH) by HPLC–MS; type: physicochemical; design: unit not given here
Protocol: Electrophilic fragments tested against MurA, CatB and MAO-A (25–53, structures shown in Supporting Figure S2 and SMILES provided in Supporting Table S1) represent eight different warhead chemotypes reacting via two reaction mechanisms: Michael-type nucleophilic addition and nucleophilic substitution. The intrinsic thiol reactivities (see Table 1) were determined by kinetic measurement of adduct formation with L-glutathione (GSH), a widely used cysteine surrogate, by an HPLC–MS methodology, as described in the referred study.

[2] = target: T1, Recombinant human microsomal MAO-A (Homo sapiens, UniProt P21397); experiment: MAO-A activity assay (fluorimetric, Amplex Red, p-tyramine); type: biochemical; settings: for RA: MAO-A residual activity, active if lower than 60%
T1 construct: purchased Sigma Aldrich; host or cells: baculovirus infected insect cells (BTI-TN-5B1-4)
T1 sequence (P21397 1-527): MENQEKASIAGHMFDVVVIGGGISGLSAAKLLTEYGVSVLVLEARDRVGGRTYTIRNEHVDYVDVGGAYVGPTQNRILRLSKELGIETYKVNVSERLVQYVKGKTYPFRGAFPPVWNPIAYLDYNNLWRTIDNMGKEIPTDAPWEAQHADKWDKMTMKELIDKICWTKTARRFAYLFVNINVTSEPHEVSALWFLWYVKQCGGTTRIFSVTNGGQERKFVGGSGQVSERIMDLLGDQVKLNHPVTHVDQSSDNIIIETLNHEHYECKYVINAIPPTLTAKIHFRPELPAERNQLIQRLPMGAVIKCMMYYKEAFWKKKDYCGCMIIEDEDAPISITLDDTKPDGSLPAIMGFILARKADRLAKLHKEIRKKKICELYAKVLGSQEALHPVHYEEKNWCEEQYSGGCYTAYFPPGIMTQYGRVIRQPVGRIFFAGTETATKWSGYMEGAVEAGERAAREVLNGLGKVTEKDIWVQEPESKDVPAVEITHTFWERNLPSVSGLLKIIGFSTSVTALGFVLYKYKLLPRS
Protocol: The effects of the test compounds on MAO-A were investigated using a fluorimetric assay, following a previously described methodology. The inhibitory activity of the compounds was evaluated by their effects on the production of hydrogen peroxide (H2O2) from p-tyramine. The production of H2O2 was detected using Amplex Red reagent in the presence of horseradish peroxidase, where a highly sensitive fluorescent product, resorufin, is produced at stoichiometric amounts. Recombinant human microsomal MAO-A enzyme expressed in baculovirus infected insect cells (BTI-TN-5B1-4), horse-radish peroxidase (type II, lyophilized powder), and p-tyramine hydrochloride were obtained from Sigma Aldrich. 10-Acetyl-3,7-dihydroxyphenoxazine (Amplex Red reagent) was synthesized as described in the literature.
Briefly, 100 µL 50 mM sodium phosphate buffer (pH 7.4, 0.05% Triton X-114) containing the compounds and MAO-A were incubated for 30 min at 37 °C in a flat-bottomed black 96-well microplate, and placed in a dark microplate reader chamber. After the pre-incubation, the reaction was started by adding the final concentrations of 200 µM Amplex Red reagent, 2 U/mL horseradish peroxidase, and 1 mM p-tyramine (final volume, 200 µL). The production of resorufin was quantified based on the fluorescence generated (λex = 530 nm, λem = 590 nm) at 37 °C over a period of 30 min, during which time the fluorescence increased linearly. For control experiments, DMSO was used instead of the appropriate dilutions of the compounds in DMSO. To determine the blank value (b), phosphate-buffered solution replaced the enzyme solution. The initial velocities were calculated from the trends obtained, with each measurement carried out in duplicate. The specific fluorescence emission to obtain the final result was calculated after subtraction of the blank activity (b).

MurA [3] = target: T2, MurA (Escherichia coli, UniProt P0A749); settings: MurA residual activity; active if lower than 60%
T2 sequence (P0A749 whole entry): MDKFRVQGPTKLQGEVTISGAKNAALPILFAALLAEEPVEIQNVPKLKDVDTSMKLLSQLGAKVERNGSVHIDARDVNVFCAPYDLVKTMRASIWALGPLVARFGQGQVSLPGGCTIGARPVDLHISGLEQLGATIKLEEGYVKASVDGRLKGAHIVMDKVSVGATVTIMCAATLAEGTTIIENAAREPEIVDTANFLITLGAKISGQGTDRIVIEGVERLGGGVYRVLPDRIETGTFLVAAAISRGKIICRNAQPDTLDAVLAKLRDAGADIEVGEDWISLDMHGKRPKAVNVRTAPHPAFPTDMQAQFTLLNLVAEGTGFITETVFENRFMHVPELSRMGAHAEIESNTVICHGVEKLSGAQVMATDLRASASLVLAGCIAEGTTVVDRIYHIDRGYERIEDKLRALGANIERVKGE
Protocol: (§1) These fragments were measured in single point enzyme activity assays at 100 μM concentration against MurA and CatB.

MurA [4] = target: T2, MurA; settings: cited from earlier work; for MurA RA (%): residual activity at 100 μM, single point; for experimental activity class against MurA: < 60% residual activity at 100 μM considered active
CatB [5] = target: T3, CatB (Homo sapiens, UniProt P07858); design: method as in PMID 30321804; settings: cited from earlier work; for CatB RA (%): residual activity at 100 μM, single point; for experimental activity class against CatB: < 60% residual activity at 100 μM considered active
[6] = cited from earlier work
CatB [7] = target: T3, CatB; experiment: CatB single point enzyme activity assay (residual activity); settings: for remaining activity at 100 µM: read-out: RA
Protocol: as §1

human MAO-A = target: T4, human MAO-A (Homo sapiens, UniProt P21397); experiment: Labelling of human MAO-A, tryptic digestion and LC–MS/MS; type: binding; settings: 24 h at 4 °C, tryptic digestion
T4 sequence (P21397 1-527): T1 sequence (P21397 1-527)

MurA [8] = target: T2, MurA; experiment: biochemical; settings: read-out: RA
Protocol: as §1

[9] = half-life of adduct formation with L-glutathione

SMILES | experimental activity class against KRAS^G12C (KRAS^G12C) | Reactivity, Experimental ln(k) vs GSH [1] | RA [2] | RA (MurA [3]) | MurA RA (%) (MurA [4]) | CatB RA (%) (CatB [5]) | GSH half-life [6, 9] | RA (CatB [7]; CatB residual activity, active if lower than 60%) | covalent labelling of MAO-A (MS/MS) (human MAO-A) | experimental activity class against MurA (MurA [4]) | experimental activity class against CatB (CatB [5]) | remaining activity at 100 µM (MurA [8]) | remaining activity at 100 µM (CatB [7]) | MAO-A inhibition (experimental) ([2]; MAO-A inhibitory assay) | GSH half-life ([6]; buffer)
Cc1ccc2[nH]ncc2c1-c1c(Cl)cc2c(N3CCN(C(=O)n4ccnc4)CC3)ncnc2c1F [Compound 14, c1n[nH]c(c12)ccc(C)c2-c(c(Cl)c3)c(F)c(c34)ncnc4N5CCN(CC5)C(=O)n6ccnc6] | experimental actives | – | – | – | – | – | – | – | – | – | – | – | – | – | –
Cc1ccc2[nH]ncc2c1-c1c(Cl)cc2c(N3CCC(NC(=O)CCl)CC3)ncnc2c1F [Compound 17, c1n[nH]c(c12)ccc(C)c2-c(c(Cl)c3)c(F)c(c34)ncnc4N5CCC(CC5)NC(=O)CCl] | experimental actives | – | – | – | – | – | – | – | – | – | – | – | – | – | –
C/C=C/C#N [Compound 28, C/C=C/C#N] | – | -4.085 | 81% | 101% | 101% | 87% | 41.2 h | 87% | – | – | – | – | – | – | –
C=CC(=O)Nc1cc(C(F)(F)F)cc(C(F)(F)F)c1 [Compound 32, C=CC(=O)Nc1cc(C(F)(F)F)cc(C(F)(F)F)c1] | – | – | – | – | – | – | – | – | double modified; also recorded: forms a covalent bond with Cys323 | experimental MurA actives | – | – | – | – | –
O=C(CBr)c1ccc(-c2ccccc2)cc1 [Compound 44, O=C(CBr)c1ccc(-c2ccccc2)cc1] | – | 1.936 | 14% | – | 0% | 0% | < 0.1 h | – | – | – | experimental actives | 0.1% | 0.1% | – | –
O=C(CBr)c1ccccc1 [Compound 45, O=C(CBr)c1ccccc1] | – | 1.936 | 39% | – | 2% | 27% | – | – | – | – | – | 2% | 27% | found to inhibit MAO-A activity | < 0.1 h
COc1ccccc1C(=O)CBr [Compound 46, COc1ccccc1C(=O)CBr] | – | 1.936 | 39% | – | 3% | 55% | < 0.1 h | – | – | experimental MurA actives | experimental actives | 3% | 55% | – | –
Cc1ccccc1NC(=O)CCl [Compound 47, Cc1ccccc1NC(=O)CCl] | – | -6.153 | 78% | – | 83% | 86% | 326 h | – | – | – | – | 83% | 86% | – | –
CC(Br)C(=O)Nc1cc(C(F)(F)F)cc(C(F)(F)F)c1 (stereo not drawn) [Compound 50, CC(Br)C(=O)Nc1cc(C(F)(F)F)cc(C(F)(F)F)c1] | – | -4.922 | 83% | – | 35% | 91% | 95.2 h | – | – | – | – | 35% | 91% | – | –
COc1cc(NC(=O)CCl)cc(OC)c1 [Compound 51, COc1cc(NC(=O)CCl)cc(OC)c1] | – | -3.498 | 69% | – | 61% | 87% | 22.9 h | – | – | – | – | 61% | 87% | – | –

From article PMC7904743, “WIDOCK: a reactive docking protocol for virtual screening of covalent inhibitors” (Journal of Computer-Aided Molecular Design, 2021)
